In patent publication US10730874B2 (Shire Human Genetic Therapies, Inc., priority 2018, dated 2020):

molecular target: human activated kallikrein enzyme (plasma kallikrein) (Homo sapiens (Human), UniProt P03952); test: Inhibition of human activated plasma kallikrein, fluorogenic peptide substrate assay, 500 pM enzyme format; format: biochemical; settings: 500 pM activated kallikrein enzyme, 300 uM Pro-Phe-Arg-7-amido-4-methylcoumarin substrate, 30 min preincubation, 10 min at RT; read-out: Primary Dose Response Assay: Average EC50
How it was run: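 Buffer 20 mM Tris pH 7.5, EDTA, NaCl, PEG-400, Triton X-100; 300 uM Pro-Phe-Arg-AMC; enzyme–inhibitor preincubation 30 min RT. Format one: 500 pM kallikrein, 10 min RT reaction; format two: 5 pM kallikrein, 18 h RT reaction. Fluorescence read at 460 nm (380 nm excitation).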

Sequence of human activated kallikrein enzyme (plasma kallikrein) (P03952 391-638): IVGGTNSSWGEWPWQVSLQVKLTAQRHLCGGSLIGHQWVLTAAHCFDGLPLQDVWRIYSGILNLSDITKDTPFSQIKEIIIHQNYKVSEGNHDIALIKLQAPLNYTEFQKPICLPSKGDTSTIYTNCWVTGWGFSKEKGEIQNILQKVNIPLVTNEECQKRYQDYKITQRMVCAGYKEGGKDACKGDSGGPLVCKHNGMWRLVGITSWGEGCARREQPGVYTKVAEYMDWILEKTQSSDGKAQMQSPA
Sequence of human activated kallikrein enzyme (plasma kallikrein) (P03952 20-390 partner): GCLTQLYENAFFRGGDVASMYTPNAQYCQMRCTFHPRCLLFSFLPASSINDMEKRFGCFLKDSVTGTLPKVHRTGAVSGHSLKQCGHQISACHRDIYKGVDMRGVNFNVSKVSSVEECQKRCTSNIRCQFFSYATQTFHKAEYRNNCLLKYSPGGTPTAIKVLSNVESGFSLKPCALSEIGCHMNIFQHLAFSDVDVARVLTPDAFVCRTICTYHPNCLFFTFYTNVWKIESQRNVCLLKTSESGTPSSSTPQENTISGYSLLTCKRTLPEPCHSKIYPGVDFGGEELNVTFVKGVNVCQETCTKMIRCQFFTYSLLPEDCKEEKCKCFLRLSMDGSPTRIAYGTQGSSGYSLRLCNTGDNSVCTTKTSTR

SMILES	EC50 [nM]
O=C(O)c1ccn(Cc2cc(C3CC3)cn3cc(Cn4cc(C(=O)NCc5ncn6ccc(Cl)c(F)c56)nn4)nc23)n1 [Example I-202, 1-((2-((4-(((7-chloro-8-fluoroimidazo[1,5-a]pyridin-1-yl)methyl)carbamoyl)-1H-1,2,3-triazol-1-yl)methyl)-6-cyclopropylimidazo[1,2-a]pyridin-8-yl)methyl)-1H-pyrazole-3-carboxylic acid]	< 1
O=C(NCc1ncn2ccc(Cl)c(F)c12)c1cn(Cc2cn3cc(C4CC4)cc(N4CCCC4=O)c3n2)nn1 [Example I-203, N-((7-chloro-8-fluoroimidazo[1,5-a]pyridin-1-yl)methyl)-1-((6-cyclopropyl-8-(2-oxopyrrolidin-1-yl)imidazo[1,2-a]pyridin-2-yl)methyl)-1H-1,2,3-triazole-4-carboxamide]	< 1
O=C(NCc1ncn2ccc(Cl)c(F)c12)c1cn(Cc2cn3cc(C4CC4)cc(Br)c3n2)nn1 [Example I-204, 1-((8-bromo-6-cyclopropylimidazo[1,2-a]pyridin-2-yl)methyl)-N-((7-chloro-8-fluoroimidazo[1,5-a]pyridin-1-yl)methyl)-1H-1,2,3-triazole-4-carboxamide]	< 1
CCOC(=O)C(C)(C)Cc1cc(C2CC2)cn2cc(Cn3cc(C(=O)NCc4ncn5ccc(Cl)c(F)c45)nn3)nc12 [Example I-205, ethyl 3-(2-((4-(((7-chloro-8-fluoroimidazo[1,5-a]pyridin-1-yl)methyl)carbamoyl)-1H-1,2,3-triazol-1-yl)methyl)-6-cyclopropylimidazo[1,2-a]pyridin-8-yl)-2,2-dimethylpropanoate]	< 1
CC(C)(Cc1cc(C2CC2)cn2cc(Cn3cc(C(=O)NCc4ncn5ccc(Cl)c(F)c45)nn3)nc12)C(=O)O [Example I-206, 3-(2-((4-(((7-chloro-8-fluoroimidazo[1,5-a]pyridin-1-yl)methyl)carbamoyl)-1H-1,2,3-triazol-1-yl)methyl)-6-cyclopropylimidazo[1,2-a]pyridin-8-yl)-2,2-dimethylpropanoic acid]	< 1
O=C(O)COc1cc(C2CC2)cn2cc(Cn3cc(C(=O)NCc4ncn5ccc(Cl)c(F)c45)nn3)nc12 [Example I-208, 2-((2-((4-(((7-chloro-8-fluoroimidazo[1,5-a]pyridin-1-yl)methyl)carbamoyl)-1H-1,2,3-triazol-1-yl)methyl)-6-cyclopropylimidazo[1,2-a]pyridin-8-yl)oxy)acetic acid]	< 1
O=C(NCc1ncn2ccc(Cl)c(F)c12)c1cn(Cc2cc3ncc(C4CC4)cn3n2)nn1 [Example I-209, N-((7-chloro-8-fluoroimidazo[1,5-a]pyridin-1-yl)methyl)-1-((6-cyclopropylpyrazolo[1,5-a]pyrimidin-2-yl)methyl)-1H-1,2,3-triazole-4-carboxamide]	1 to 10
O=C(NCc1ncn2ccc(Cl)c(F)c12)c1cn(Cc2[nH]c3ccc(C4CC4)cc3c2C(F)(F)F)nn1 [Example I-211, N-((7-chloro-8-fluoroimidazo[1,5-a]pyridin-1-yl)methyl)-1-((5-cyclopropyl-3-(trifluoromethyl)-1H-indol-2-yl)methyl)-1H-1,2,3-triazole-4-carboxamide]	10 to 100
CC(C)(Oc1cc(C2CC2)cn2cc(Cn3cc(C(=O)NCc4ncn5ccc(Cl)c(F)c45)nn3)nc12)C(=O)O [Example I-212, 2-((2-((4-(((7-chloro-8-fluoroimidazo[1,5-a]pyridin-1-yl)methyl)carbamoyl)-1H-1,2,3-triazol-1-yl)methyl)-6-cyclopropylimidazo[1,2-a]pyridin-8-yl)oxy)-2-methylpropanoic acid]	< 1
COC(=O)C1(Cc2cc(C3CC3)cn3cc(Cn4cc(C(=O)NCc5ncn6ccc(Cl)c(F)c56)nn4)nc23)CCCC1 [Example I-221a, methyl 1-((2-((4-(((7-chloro-8-fluoroimidazo[1,5-a]pyridin-1-yl)methyl)carbamoyl)-1H-1,2,3-triazol-1-yl)methyl)-6-cyclopropylimidazo[1,2-a]pyridin-8-yl)methyl)cyclopentane-1-carboxylate]	< 1
O=C(NCc1ncn2ccc(Cl)c(F)c12)c1cn(Cc2cn3cc(C4CC4)cc(CC4(C(=O)O)CCCC4)c3n2)nn1 [Example I-221b, 1-((2-((4-(((7-chloro-8-fluoroimidazo[1,5-a]pyridin-1-yl)methyl)carbamoyl)-1H-1,2,3-triazol-1-yl)methyl)-6-cyclopropylimidazo[1,2-a]pyridin-8-yl)methyl)cyclopentane-1-carboxylic acid]	< 1
CCOc1c(Cl)ccn2cnc(CNC(=O)c3cn(Cc4cn5cc(C6CC6)cc(CC6(C(=O)O)CCCC6)c5n4)nn3)c12 [Example I-221c, 1-((2-((4-(((7-chloro-8-ethoxyimidazo[1,5-a]pyridin-1-yl)methyl)carbamoyl)-1H-1,2,3-triazol-1-yl)methyl)-6-cyclopropylimidazo[1,2-a]pyridin-8-yl)methyl)cyclopentane-1-carboxylic acid]	10 to 100
O=C(NCc1ncn2ccc(Cl)c(F)c12)c1cn(Cc2cc3ccc(Cl)cc3[nH]2)nn1 [Example I-222, 1-((6-chloro-1H-indol-2-yl)methyl)-N-((7-chloro-8-fluoroimidazo[1,5-a]pyridin-1-yl)methyl)-1H-1,2,3-triazole-4-carboxamide]	100 to 2000
CCOC(=O)C(C)(C)Oc1cc(C2CC2)cn2cc(Cn3cc(C(=O)NCc4ncn5ccc(Cl)c(F)c45)nn3)nc12 [Example I-223, ethyl 2-((2-((4-(((7-chloro-8-fluoroimidazo[1,5-a]pyridin-1-yl)methyl)carbamoyl)-1H-1,2,3-triazol-1-yl)methyl)-6-cyclopropylimidazo[1,2-a]pyridin-8-yl)oxy)-2-methylpropanoate]	< 1
COC(=O)C(F)Cc1cc(C2CC2)cn2cc(Cn3cc(C(=O)NCc4ncn5ccc(Cl)c(F)c45)nn3)nc12 (stereo not drawn) [Example I-224a, methyl 3-(2-((4-(((7-chloro-8-fluoroimidazo[1,5-a]pyridin-1-yl)methyl)carbamoyl)-1H-1,2,3-triazol-1-yl)methyl)-6-cyclopropylimidazo[1,2-a]pyridin-8-yl)-2-fluoropropanoate]	< 1

Now from value to compound:

EC50 [nM]	SMILES
< 1	CCOC(=O)COc1cc(C2CC2)cn2cc(Cn3cc(C(=O)NCc4ncn5ccc(Cl)c(F)c45)nn3)nc12 [Example I-207, ethyl 2-((2-((4-(((7-chloro-8-fluoroimidazo[1,5-a]pyridin-1-yl)methyl)carbamoyl)-1H-1,2,3-triazol-1-yl)methyl)-6-cyclopropylimidazo[1,2-a]pyridin-8-yl)oxy)acetate]
< 1	CCOC(=O)c1nnc(Cc2cc(C3CC3)cn3cc(Cn4cc(C(=O)NCc5ncn6ccc(Cl)c(F)c56)nn4)nc23)o1 [Example I-210a, ethyl 5-((2-((4-(((7-chloro-8-fluoroimidazo[1,5-a]pyridin-1-yl)methyl)carbamoyl)-1H-1,2,3-triazol-1-yl)methyl)-6-cyclopropylimidazo[1,2-a]pyridin-8-yl)methyl)-1,3,4-oxadiazole-2-carboxylate]
< 1	O=C(NCc1ncn2ccc(Cl)c(F)c12)c1cn(Cc2cn3cc(C4CC4)cc(Cc4nnco4)c3n2)nn1 [Example I-210b, 1-((8-((1,3,4-oxadiazol-2-yl)methyl)-6-cyclopropylimidazo[1,2-a]pyridin-2-yl)methyl)-N-((7-chloro-8-fluoroimidazo[1,5-a]pyridin-1-yl)methyl)-1H-1,2,3-triazole-4-carboxamide]
< 1	CC(F)c1cc(C2CC2)cn2cc(Cn3cc(C(=O)NCc4ncn5ccc(Cl)c(F)c45)nn3)nc12 (stereo not drawn) [Example I-213, N-((7-chloro-8-fluoroimidazo[1,5-a]pyridin-1-yl)methyl)-1-((6-cyclopropyl-8-(1-fluoroethyl)imidazo[1,2-a]pyridin-2-yl)methyl)-1H-1,2,3-triazole-4-carboxamide]
< 1	O=C(NCc1ncn2ccc(Cl)c(F)c12)c1cnn(Cc2cn3cc(C4CC4)cc(Cc4nnco4)c3n2)c1 [Example I-214, 1-((8-((1,3,4-oxadiazol-2-yl)methyl)-6-cyclopropylimidazo[1,2-a]pyridin-2-yl)methyl)-N-((7-chloro-8-fluoroimidazo[1,5-a]pyridin-1-yl)methyl)-1H-pyrazole-4-carboxamide]
< 1	O=C(NCc1ncn2ccc(Cl)c(F)c12)c1cnn(Cc2cn3cc(C4CC4)cc(C4COC4)c3n2)c1 [Example I-215, N-((7-chloro-8-fluoroimidazo[1,5-a]pyridin-1-yl)methyl)-1-((6-cyclopropyl-8-(oxetan-3-yl)imidazo[1,2-a]pyridin-2-yl)methyl)-1H-pyrazole-4-carboxamide]
< 1	O=C(NCc1ncn2ccc(Cl)c(F)c12)c1cn(Cc2cn3cc(C4CC4)cc(N4CCOC4=O)c3n2)nn1 [Example I-216, N-((7-chloro-8-fluoroimidazo[1,5-a]pyridin-1-yl)methyl)-1-((6-cyclopropyl-8-(2-oxooxazolidin-3-yl)imidazo[1,2-a]pyridin-2-yl)methyl)-1H-1,2,3-triazole-4-carboxamide]
1 to 10	O=C(NCc1ncn2ccc(Cl)c(F)c12)c1cn(Cc2cn3ncc(C4CC4)cc3n2)nn1 [Example I-217, N-((7-chloro-8-fluoroimidazo[1,5-a]pyridin-1-yl)methyl)-1-((7-cyclopropylimidazo[1,2-b]pyridazin-2-yl)methyl)-1H-1,2,3-triazole-4-carboxamide]
< 1	O=C(NCc1ncn2ccc(Cl)c(F)c12)c1cn(Cc2cn3cc(C4CC4)cc(-n4cccn4)c3n2)nn1 [Example I-220, N-((7-chloro-8-fluoroimidazo[1,5-a]pyridin-1-yl)methyl)-1-((6-cyclopropyl-8-(1H-pyrazol-1-yl)imidazo[1,2-a]pyridin-2-yl)methyl)-1H-1,2,3-triazole-4-carboxamide]
